EC50 and inhibition data for two molecules are collected here from US9745261B2, “Inhibitors of the MITF molecular pathway” (THE GENERAL HOSPITAL CORPORATION, priority 2013, dated 2017).

Usually EC50 stands for the concentration giving half of the maximal effect. As usually defined, the inhibition is the relative decrease from the control value, in per cent.

The subject of one experiment is CDK2. The experiment can be described thus: qPCR assay for CDK2 expression in SK-MEL-5 cells. Format: cell-based, human. Particulars: Homo sapiens; SK-MEL-5 melanoma cells, up to 35 μM. On the procedure:
SK-MEL-5 cells were treated with compounds for 24 hours. Next, cells were lysed with DNase I (Ambion, from Cell to CT Lysis Mix). Lysed cells were delivered to a RT-PCR plate (Ambion, Cells to CT RT Mix) and the plates were then processed for reverse transcription to create cDNA. qPCR was performed by transferring cDNA from the RT-PCR plate to a qPCR plate containing PCR master mix (Roche, Probes Master), FAM Taqman probe/primer set for the target gene (human MITF, Applied Biosystem, 4331182 Hs01117294_m1), VIC Taqman probe/primer set for a house keeping gene (human GAPDH, Applied Biosystems C10228) and water. qPCR plates were cycled using a real-time PCR instrument (Roche, Light Cycler). Using the instrument software, a cycle call was generated when each well enters log phase amplification (Ct). The delta Ct value was determined by subtracting the Ct value of the control gene (GAPDH) from the Ct value of the target gene (MITF) in each well. The delta delta Ct value of each compound treatment was determined by averaging the delta Ct values of the mock well on each plate and subtracting that average from the delta Ct value of each compound well. […]
• 10. […] The RT assay plates are incubated at 37° C. for 1 hour and the reverse transcriptase is inactivated by incubating the plates for 1 minute at 95° C. • 13. cDNA is stored at −80° C. until ready for qPCR analysis […]
In general terms: Quantitative PCR measures a nucleic acid by following its amplification.

The next experiment deals with T1, Dopamine D2S (Homo sapiens, UniProt P14416).
T1 construct: Eurofins Panlabs, Inc. (contract assay)
The experiment can be described thus: Radioligand binding, Dopamine D2S.

Another experiment has as its target T2, Muscarinic M1 (Homo sapiens, UniProt P11229).
T2 construct: Eurofins Panlabs, Inc
Nature of the experiment: Radioligand binding, Muscarinic M1.

For another experiment, the target named is T3, Cannabinoid CB1 (Homo sapiens, UniProt P21554).
T3 construct: Eurofins Panlabs, Inc. (contract assay)
Nature of the experiment: Radioligand binding, Cannabinoid CB1.

Another experiment concerns the target T4, Histamine H2 (Homo sapiens, UniProt P25021).
T4 construct: Eurofins Panlabs, Inc
Nature of the experiment: Radioligand binding, Histamine H2.

In the next experiment the target is T5, Adrenergic α1B (Rattus norvegicus, UniProt P15823).
T5 construct: Eurofins Panlabs, Inc. (contract assay)
The experiment can be described thus: Radioligand binding, Adrenergic α1B.

In experiment [1] the target is T6, Epidermal Growth Factor (EGF) (Homo sapiens, UniProt P00533).
T6 construct: Eurofins Panlabs, Inc. (contract assay)
The experiment can be described thus: Radioligand binding, Epidermal Growth Factor (EGF).

Another experiment concerns the target T7, Tachykinin NK1 (Homo sapiens, UniProt P25103).
T7 construct: Eurofins Panlabs
The experiment can be described thus: Radioligand binding, Tachykinin NK1.

Another experiment deals with T8, Transporter, GABA (Rattus norvegicus, UniProt P23978).
T8 construct: Eurofins Panlabs
The experiment can be described thus: Radioligand binding, Transporter, GABA.

Another experiment addresses T9, Histamine H1 (Homo sapiens, UniProt P35367).
T9 construct: Eurofins Panlabs, Inc
The experiment can be described thus: Radioligand binding, Histamine H1.

For experiment [2], the target named is T10, Platelet Activating Factor (PAF) (Homo sapiens, UniProt P25105).
T10 construct: Eurofins Panlabs
Nature of the experiment: Radioligand binding, Platelet Activating Factor (PAF).

T4 sequence (P25021 whole entry): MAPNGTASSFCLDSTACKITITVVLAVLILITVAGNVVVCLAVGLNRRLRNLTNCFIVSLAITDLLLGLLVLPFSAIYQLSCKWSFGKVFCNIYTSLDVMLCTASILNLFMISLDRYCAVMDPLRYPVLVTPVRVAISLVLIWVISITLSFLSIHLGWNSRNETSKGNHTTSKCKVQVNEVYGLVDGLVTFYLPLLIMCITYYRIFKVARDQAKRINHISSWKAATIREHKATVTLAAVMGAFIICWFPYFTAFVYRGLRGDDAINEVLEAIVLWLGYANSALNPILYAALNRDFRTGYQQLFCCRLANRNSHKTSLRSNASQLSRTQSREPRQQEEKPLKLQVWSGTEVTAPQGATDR
T9 sequence (P35367 whole entry): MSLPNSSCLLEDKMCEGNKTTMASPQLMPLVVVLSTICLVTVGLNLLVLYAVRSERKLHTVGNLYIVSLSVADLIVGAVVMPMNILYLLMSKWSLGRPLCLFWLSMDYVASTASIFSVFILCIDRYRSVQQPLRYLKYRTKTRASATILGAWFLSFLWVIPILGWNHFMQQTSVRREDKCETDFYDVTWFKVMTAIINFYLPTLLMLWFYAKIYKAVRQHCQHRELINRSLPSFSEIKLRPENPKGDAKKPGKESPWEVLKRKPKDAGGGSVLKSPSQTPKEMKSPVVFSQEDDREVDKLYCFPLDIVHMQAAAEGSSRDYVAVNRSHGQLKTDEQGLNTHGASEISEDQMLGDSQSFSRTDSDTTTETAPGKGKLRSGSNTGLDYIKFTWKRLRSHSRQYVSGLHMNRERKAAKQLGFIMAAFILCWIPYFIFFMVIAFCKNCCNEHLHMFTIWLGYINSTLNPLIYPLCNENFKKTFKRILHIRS
T1 sequence (P14416 1-414 isoform P14416-2): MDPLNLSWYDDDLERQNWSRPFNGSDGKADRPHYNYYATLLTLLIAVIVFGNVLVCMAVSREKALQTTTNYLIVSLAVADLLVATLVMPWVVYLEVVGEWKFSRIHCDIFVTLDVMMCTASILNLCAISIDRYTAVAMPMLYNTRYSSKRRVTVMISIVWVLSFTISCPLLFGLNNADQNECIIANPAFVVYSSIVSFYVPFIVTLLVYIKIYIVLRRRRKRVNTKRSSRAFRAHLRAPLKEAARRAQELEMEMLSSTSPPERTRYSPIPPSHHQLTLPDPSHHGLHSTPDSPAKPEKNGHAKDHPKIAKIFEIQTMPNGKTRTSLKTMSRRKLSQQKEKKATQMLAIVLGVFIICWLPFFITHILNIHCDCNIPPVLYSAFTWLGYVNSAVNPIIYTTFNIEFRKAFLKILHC
T10 sequence (P25105 whole entry): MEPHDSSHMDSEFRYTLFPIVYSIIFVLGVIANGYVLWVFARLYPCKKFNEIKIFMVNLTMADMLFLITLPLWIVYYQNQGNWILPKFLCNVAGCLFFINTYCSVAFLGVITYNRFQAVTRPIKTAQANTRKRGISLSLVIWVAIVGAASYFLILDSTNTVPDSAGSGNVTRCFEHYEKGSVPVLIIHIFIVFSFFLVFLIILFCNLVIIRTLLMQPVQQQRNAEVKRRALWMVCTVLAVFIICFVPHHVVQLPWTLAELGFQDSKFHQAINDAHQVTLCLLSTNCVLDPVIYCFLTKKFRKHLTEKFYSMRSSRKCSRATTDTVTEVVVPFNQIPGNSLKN
T3 sequence (P21554 whole entry): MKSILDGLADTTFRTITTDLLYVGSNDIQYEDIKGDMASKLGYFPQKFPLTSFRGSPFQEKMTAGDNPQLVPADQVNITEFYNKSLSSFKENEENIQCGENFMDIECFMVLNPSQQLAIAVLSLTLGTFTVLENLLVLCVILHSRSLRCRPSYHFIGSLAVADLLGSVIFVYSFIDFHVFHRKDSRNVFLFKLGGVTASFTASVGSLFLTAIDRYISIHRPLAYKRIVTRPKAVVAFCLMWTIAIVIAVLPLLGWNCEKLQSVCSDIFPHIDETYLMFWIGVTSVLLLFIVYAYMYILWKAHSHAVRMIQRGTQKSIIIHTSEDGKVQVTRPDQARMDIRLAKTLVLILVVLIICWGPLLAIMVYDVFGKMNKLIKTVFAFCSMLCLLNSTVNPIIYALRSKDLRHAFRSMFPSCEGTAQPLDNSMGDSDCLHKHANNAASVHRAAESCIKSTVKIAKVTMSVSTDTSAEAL
T6 sequence (P00533 25-1210): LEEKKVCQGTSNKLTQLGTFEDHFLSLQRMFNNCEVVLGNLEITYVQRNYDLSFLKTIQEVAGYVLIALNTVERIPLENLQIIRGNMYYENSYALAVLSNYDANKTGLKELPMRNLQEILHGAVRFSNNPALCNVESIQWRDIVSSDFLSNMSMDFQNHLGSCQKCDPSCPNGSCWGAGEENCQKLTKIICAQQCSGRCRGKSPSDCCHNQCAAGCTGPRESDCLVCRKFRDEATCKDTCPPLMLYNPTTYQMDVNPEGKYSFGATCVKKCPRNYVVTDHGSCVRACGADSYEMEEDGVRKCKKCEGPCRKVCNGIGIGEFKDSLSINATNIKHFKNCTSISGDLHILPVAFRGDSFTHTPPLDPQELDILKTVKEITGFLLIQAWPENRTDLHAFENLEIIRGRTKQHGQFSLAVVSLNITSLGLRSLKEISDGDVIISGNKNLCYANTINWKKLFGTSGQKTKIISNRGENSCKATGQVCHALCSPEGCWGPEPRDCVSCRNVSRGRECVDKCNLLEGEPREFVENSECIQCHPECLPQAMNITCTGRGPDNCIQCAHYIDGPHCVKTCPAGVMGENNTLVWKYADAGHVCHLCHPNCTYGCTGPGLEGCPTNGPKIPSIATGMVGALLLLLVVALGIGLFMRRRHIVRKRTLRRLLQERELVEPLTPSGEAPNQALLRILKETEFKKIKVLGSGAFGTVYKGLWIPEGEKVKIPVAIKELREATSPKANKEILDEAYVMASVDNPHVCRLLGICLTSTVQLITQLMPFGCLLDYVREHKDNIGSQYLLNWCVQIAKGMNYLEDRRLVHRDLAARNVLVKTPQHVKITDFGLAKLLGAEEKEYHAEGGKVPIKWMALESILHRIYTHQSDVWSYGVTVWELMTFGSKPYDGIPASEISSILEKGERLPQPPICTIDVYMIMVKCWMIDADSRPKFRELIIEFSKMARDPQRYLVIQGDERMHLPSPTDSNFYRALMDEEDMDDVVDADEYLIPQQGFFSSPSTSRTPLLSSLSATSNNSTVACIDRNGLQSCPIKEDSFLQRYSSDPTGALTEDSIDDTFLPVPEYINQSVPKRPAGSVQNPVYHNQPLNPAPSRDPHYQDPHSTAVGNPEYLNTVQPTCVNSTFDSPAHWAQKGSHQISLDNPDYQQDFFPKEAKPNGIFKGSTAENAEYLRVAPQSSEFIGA
T7 sequence (P25103 whole entry): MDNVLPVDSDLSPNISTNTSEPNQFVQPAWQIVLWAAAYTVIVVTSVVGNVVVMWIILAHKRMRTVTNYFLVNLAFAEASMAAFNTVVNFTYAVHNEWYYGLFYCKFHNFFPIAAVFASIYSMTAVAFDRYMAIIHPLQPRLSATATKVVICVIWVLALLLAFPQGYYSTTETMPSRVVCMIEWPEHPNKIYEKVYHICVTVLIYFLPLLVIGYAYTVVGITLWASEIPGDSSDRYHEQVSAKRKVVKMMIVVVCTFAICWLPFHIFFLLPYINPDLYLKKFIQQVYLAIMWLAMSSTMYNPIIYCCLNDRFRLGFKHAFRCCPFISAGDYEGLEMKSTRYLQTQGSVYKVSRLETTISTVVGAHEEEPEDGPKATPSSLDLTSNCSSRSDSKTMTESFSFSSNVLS
T2 sequence (P11229 whole entry): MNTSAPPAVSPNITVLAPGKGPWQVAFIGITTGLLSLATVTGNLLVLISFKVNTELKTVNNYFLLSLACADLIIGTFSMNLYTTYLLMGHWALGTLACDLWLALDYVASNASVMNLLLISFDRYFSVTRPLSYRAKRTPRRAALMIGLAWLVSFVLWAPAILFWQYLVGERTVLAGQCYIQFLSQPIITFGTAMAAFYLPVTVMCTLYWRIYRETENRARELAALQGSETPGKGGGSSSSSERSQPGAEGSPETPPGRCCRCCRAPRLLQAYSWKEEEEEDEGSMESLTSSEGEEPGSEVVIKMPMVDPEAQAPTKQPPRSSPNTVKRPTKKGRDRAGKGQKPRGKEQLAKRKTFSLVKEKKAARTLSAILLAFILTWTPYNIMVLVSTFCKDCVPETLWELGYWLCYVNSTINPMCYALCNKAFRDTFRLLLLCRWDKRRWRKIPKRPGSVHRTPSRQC

For `NS(=O)(=O)c1ccc(NC2=CC(=O)c3ccccc3C2=O)cc1` [4-((1,4-dioxo-1,4-dihydronaphthalen-2-yl)amino)benzenesulfonamide], in the experiment on CDK2, the response was half-maximal at 500 nM (EC50). In other words, the sub-micromolar range.

Take `NS(=O)(=O)c1ccc(NC2=CC(=O)c3ccccc3C2=O)cc1` [Example 1, 4-((1,4-Dioxo-1,4-dihydronaphthalen-2-yl)amino)benzenesulfonamide]: the inhibition at 10 µM is 0% on Dopamine D2S; 7% at Muscarinic M1; 31% at Cannabinoid CB1; -5% on Histamine H2; 16% at Adrenergic α1B; 11% in experiment [1]. For the same molecule, the inhibition at 10 µM at Tachykinin NK1 is 37%; on Transporter, GABA, 9%; on Histamine H1, -5%; in experiment [2], 3%.
